Data taken from US9328369B2, “Process for production of useful substance, and surfactant for use in the process” (priority 2009, dated 2016).

Columns and labels:
[1] = system: Escherichia coli (α); assay: Screening of secretion efficiency, alkaline phosphatase expressing strain; type: cell-based; conditions: surfactant 1 wt %; 37° C., 1 hour; ELISA, anti-His-tag antibody
Description: An alkaline phosphatase (phoA) gene of an Escherichia coli strain W3110 was amplified by the PCR method using primers 1 and 2 (Table 4). After being treated with restriction enzymes NdeI and BamHI, a PCR fragment was bound with an NdeI restriction enzyme site and with a BamHI restriction enzyme site of a pET-22b plasmid (product of Novagen). Then, the plasmid was transformed into an AG1 (DE3) Escherichia coli strain formed by transforming an Escherichia coli strain AG1 (product of TOYOBO Co., LTD.) with use of a λDE3 Lysogenization Kit (product of Novagen). In this manner, an alkaline phosphatase expressing strain (a) was formed.
A pdxA gene of an Escherichia coli strain W3110 was amplified by the PCR method using primers 5 and 6 (Table 4). After being treated with restriction enzymes NdeI and BamHI, a PCR fragment was bound to an NdeI restriction enzyme site and a BamHI restriction enzyme site of a pET-22b plasmid (product of Novagen). Then, the plasmid was transformed into an AG1 (DE3) Escherichia coli strain to form a PdxA expressing strain (γ).
In this manner, culture solutions were prepared.
(2) The strains were collected using a centrifuge (4,000 G, 4° C., 15 minutes). Each of the collected Escherichia coli strains was resuspended in 1 mL of a TB culture solution (product of Difco) and chloramphenicol (30 mg/L) and IPTG (100 μM) were added thereto. Shake culture at 37° C. for 3 hours induced expression of phoA, torA, and pdxA.
(3) Subsequently, harvesting using a centrifuge was carried out again (4,000 G, 4° C., 15 minutes). Each of the collected Escherichia coli strains was resuspended in 2.5 mL of a Tris-NaCl buffer solution (50 mM Tris (pH 7.5), 100 mM NaCl). The resulting solution was divided into 25-μL portions at a time to be mixed with 25 μL of a Tris-NaCl buffer solution.
(4) Then, the solution was allowed to stand at 37° C. for 1 hour. The supernatant solution was collected and diluted in a Tris-NaCl buffer solution to a proper concentration. Here, the quantification of the recombinant protein in the resulting solution was carried out by ELISA assay with use of an anti-His-tag antibody. The sample prior to the centrifugation in the process (3) was treated with ultrasonic waves (200 W, 10 minutes) and the quantification of the recombinant protein therein was similarly carried out by ELISA assay with use of an anti-His-tag antibody. The ratio of lysed bacteria was obtained with use of Escherichia coli (γ), and the secretion efficiencies of the recombinant proteins of Escherichia coli (α) and (β) were calculated by using the following formula. […] Secretion efficiency (%)=100×{(X/Y)−Z}.
In the formula, “X” represents the amount of the recombinant protein in the culture solution after removal of bacterial cells by centrifugation in the case of using Escherichia coli (α) or (β).
“Y” represents the amount of the whole recombinant protein in the culture solution in the case of using Escherichia coli (α) or (β).
“Z” represents the ratio of lysed bacteria obtained with use of Escherichia coli (γ), which is determined by the following formula: Z=Z1/Z2.
In the formula, “Z1” represents the amount of the recombinant protein in the culture solution which remains after removal of bacterial cells by centrifugation in the case of using Escherichia coli (γ).
“Z2” represents the amount of the whole recombinant protein in the culture solution in the case of using Escherichia coli (γ).
Escherichia coli (α) and (β) were each cultured in the same manner as in the above case except that polyoxyethylene (3 mol) tridecyl ether sodium acetate as the surfactant (A) was added right after the resuspension of the Escherichia coli in the buffer solution in the process (3) of A-0, in an amount of 1% by weight on the basis of the weight of the suspension of the bacterium. The secretion efficiency was calculated according to the above-mentioned definition.

[2] = system: Shewanella putrefaciens; assay: Production by secretion in microbial culture system, Shewanella (Table 6); type: cell-based; conditions: surfactant 1 wt %; for Dried cell density: after 48 hours culturing; for Quantitative value of produced recombinant protein: supernatant, protein band around 45 kDa, SDS-PAGE
Procedure: An overnight culture solution (10 ml) of Shewanella putrefaciens was prepared and inoculated in 1 L of a culture solution (10 g of polypeptone (Nihon Pharmaceutical Co., Ltd.), 2 g of yeast extract (Nihon Pharmaceutical Co., Ltd.), 0.5 g of magnesium sulfate heptahydrate, 750 mL of Seawater (Daigo)) and was shake-cultured at 30° C. for 5 hours. In this manner a pre-culture solution was prepared. The pre-culture solution was inoculated in 10 L of a culture solution (200 g of polypeptone (Nihon Pharmaceutical Co., Ltd.), 40 g of yeast extract (Nihon Pharmaceutical Co., Ltd.), 10 g of magnesium sulfate heptahydrate, 7.5 L of Seawater (Daigo)). Culturing thereof was initiated with use of a microbial culture system (ABLE Corporation), while the pH value and the temperature were maintained at 7.3 and 30° C. After 48 hours from the initiation of culturing, the culture solution was recovered and centrifuged. The whole protein of the obtained supernatant fragment was analyzed by SDS-PAGE and the protein band around 45 kDa was quantified.
The dried cell density when the culturing is terminated was determined by the following processes (1) to (5):
The dried cell density was determined by assigning the measuring results in the process (5) and the process (1) and the volume (L) of the culture solution used in the process (2) to the following formula: Dried cell density (g/L)=([measuring result in process (5)]−[measuring result in process (1)])/0.1.
The same processes as in Comparative Example 5 were carried out except that, after culturing in the microbial culture system was initiated, the surfactant A-14 was added to the culture solution in an amount of 1% by weight on the basis of the weight of the culture solution.
The same processes as in Comparative Example 5 were carried out except that, after culturing in the microbial culture system was initiated, the surfactant A-7 was added to the culture solution in an amount of 1% by weight on the basis of the weight of the culture solution.

Row | Compound | Secretion efficiency (%) Escherichia coli (α) [1] [%] | Dried cell density [2] [g/L] | Quantitative value of produced recombinant protein [2] [g/L]
1 | CCCCCCCCCCCCCCCC[N+](C)(C)C.[Cl-] [A-14, Cetyl trimethyl ammonium chloride] | 37.8 | 0.23 | <0.01
2 | Polyoxyethylene(3 mol)tridecyl ether sodium acetate [A-1] | 100.0 |  | 
3 | Cured palm oil fatty acid amidopropyl dimethyl aminoacetate betaine [A-6] | 87.6 |  | 
4 | Sodium cocaminopropionate [A-7] | 85.0 | 2.32 | 0.04
